According to PubChem BioAssay (NCI):
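GI50 = concentration required for 50% inhibition of growth. TGI is the concentration that stops growth completely.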

What was measured:
Test in all cases: DTP human tumour cell line panel, 384-well format
[1] = system: 786-0 renal
[2] = system: A498 renal
[3] = system: A549 NSCLC
[4] = system: ACHN renal
[5] = system: BT-549 breast
[6] = system: CAKI-1 renal
[7] = system: CCRF-CEM leukemia
[8] = system: COLO 205 colon
[9] = system: DU-145 prostate
[10] = system: HCT-116 colon
[11] = system: HCT-15 colon
[12] = system: HL-60(TB) leukemia
[13] = system: HOP-62 NSCLC
[14] = system: HOP-92 NSCLC
[15] = system: HT29 colon
[16] = system: IGROV1 ovarian
[17] = system: K-562 leukemia
[18] = system: KM12 colon
[19] = system: LOX IMVI melanoma
[20] = system: M14 melanoma
[21] = system: MALME-3M melanoma
[22] = system: MCF7 breast
[23] = system: MDA-MB-231 breast
[24] = system: MDA-MB-435 melanoma
[25] = system: MDA-MB-468 breast
[26] = system: MOLT-4 leukemia
[27] = system: NCI-H226 lung
[28] = system: NCI-H23 lung
[29] = system: NCI-H322M lung
[30] = system: NCI-H460 NSCLC
[31] = system: NCI-H522 lung
[32] = system: NCI/ADR-RES ovarian
[33] = system: OVCAR-3 ovarian
[34] = system: OVCAR-4 ovarian
[35] = system: OVCAR-5 ovarian
[36] = system: OVCAR-8 ovarian
[37] = system: PC-3 prostate
[38] = system: RPMI-8226 leukemia
[39] = system: RXF 393 renal
[40] = system: SF-268 CNS
[41] = system: SF-295 CNS
[42] = system: SF-539 CNS
[43] = system: SK-MEL-2 melanoma
[44] = system: SK-MEL-28 melanoma
[45] = system: SK-MEL-5 melanoma
[46] = system: SK-OV-3 ovarian
[47] = system: SN12C renal
[48] = system: SNB-19 CNS
[49] = system: SR leukemia
[50] = system: SW-620 colon
[51] = system: T-47D breast
[52] = system: TK-10 renal
[53] = system: U251 glioblastoma
[54] = system: UACC-257 melanoma
[55] = system: UACC-62 melanoma
[56] = system: UO-31 renal

SMILES: CC(C)(/C=C(\C#N)C(=O)N1CCC[C@@H](n2nc(-c3ccc(Oc4ccccc4)cc3F)c3c(N)ncnc32)C1)N1CCN(C2COC2)CC1
- GI50 [1]: 3.07 µM
- TGI [1]: 10.4 µM
- GI50 [2]: 2.39 µM
- TGI [2]: 5.72 µM
- GI50 [3]: 3.55 µM
- TGI [3]: 13.2 µM
- GI50 [4]: 9.03 µM
- TGI [4]: 21.2 µM
- GI50 [5]: 1.21 µM
- TGI [5]: 2.78 µM
- GI50 [6]: 3.41 µM
- TGI [6]: 9.34 µM
- GI50 [7]: 1.49 µM
- TGI [7]: 2.86 µM
- GI50 [8]: 1.63 µM
- TGI [8]: 5.8 µM
- GI50 [9]: 9.84 µM
- TGI [9]: 29.1 µM
- GI50 [10]: 2.9 µM
- TGI [10]: 10.6 µM
- GI50 [11]: 4.52 µM
- TGI [11]: 15.1 µM
- GI50 [12]: 1.5 µM
- TGI [12]: 2.89 µM
- GI50 [13]: 2.47 µM
- TGI [13]: 5.82 µM
- GI50 [14]: 1.38 µM
- TGI [14]: 3.76 µM
- GI50 [15]: 1.73 µM
- TGI [15]: 3.48 µM
- GI50 [16]: 2.94 µM
- TGI [16]: 9.69 µM
- GI50 [17]: 1.24 µM
- TGI [17]: 2.82 µM
- GI50 [18]: 0.712 µM
- TGI [18]: 2.47 µM
- GI50 [19]: 2.3 µM
- TGI [19]: 4.09 µM
- GI50 [20]: 2.08 µM
- TGI [20]: 5.29 µM
- GI50 [21]: 1.28 µM
- TGI [21]: 5.26 µM
- GI50 [22]: 2.28 µM
- TGI [22]: 10.4 µM
- GI50 [23]: 2.54 µM
- TGI [23]: 7.28 µM
- GI50 [24]: 0.0551 µM
- TGI [24]: 0.448 µM
- GI50 [25]: 0.239 µM
- TGI [25]: 1.16 µM
- GI50 [26]: 0.157 µM
- TGI [26]: 0.46 µM
- GI50 [27]: 2.18 µM
- TGI [27]: 5.42 µM
- GI50 [28]: 3.51 µM
- TGI [28]: 9.62 µM
- GI50 [29]: 6.84 µM
- TGI [29]: 23.2 µM
- GI50 [30]: 1.87 µM
- TGI [30]: 3.72 µM
- GI50 [31]: 0.164 µM
- TGI [31]: 1.36 µM
- GI50 [32]: 13.8 µM
- TGI [32]: 27.1 µM
- GI50 [33]: 0.289 µM
- TGI [33]: 1.6 µM
- GI50 [34]: 1.35 µM
- TGI [34]: 7.72 µM
- GI50 [35]: 10.5 µM
- TGI [35]: 22.9 µM
- GI50 [36]: 5.91 µM
- TGI [36]: 18 µM
- GI50 [37]: 3.73 µM
- TGI [37]: 13.8 µM
- GI50 [38]: 1.14 µM
- TGI [38]: 2.38 µM
- GI50 [39]: 1.19 µM
- TGI [39]: 3.04 µM
- GI50 [40]: 2.29 µM
- TGI [40]: 7.3 µM
- GI50 [41]: 9.51 µM
- TGI [41]: 21.5 µM
- GI50 [42]: 2.08 µM
- TGI [42]: 5.39 µM
- GI50 [43]: 0.0857 µM
- TGI [43]: 1.08 µM
- GI50 [44]: 1.86 µM
- TGI [44]: 5.23 µM
- GI50 [45]: 1.41 µM
- TGI [45]: 2.92 µM
- GI50 [46]: 1.23 µM
- TGI [46]: 3 µM
- GI50 [47]: 2.82 µM
- TGI [47]: 7.62 µM
- GI50 [48]: 3.69 µM
- TGI [48]: 12.1 µM
- GI50 [49]: 0.0378 µM
- TGI [49]: 0.208 µM
- GI50 [50]: 1.87 µM
- TGI [50]: 3.63 µM
- GI50 [51]: 2.33 µM
- TGI [51]: 11 µM
- GI50 [52]: 6.64 µM
- TGI [52]: 18.9 µM
- GI50 [53]: 2.6 µM
- TGI [53]: 8.45 µM
- GI50 [54]: 1.49 µM
- TGI [54]: 3.81 µM
- GI50 [55]: 1.12 µM
- TGI [55]: 3.24 µM
- GI50 [56]: 7.98 µM
- TGI [56]: 20.3 µM
